Assay results published in patent US20240058392A1, “COMPOSITION COMPRISING SEA CUCUMBER GENITAL GLAND EXTRACT, COMPOUND DERIVED FROM SEA CUCUMBER OVARY EXTRACT, AND USE THEREOF” (BIOINFORMATICS & MOLECULAR DESIGN RESEARCH CENTER, priority 2020, published 2024).
Like-named read-outs stand apart in the source and are kept apart here.

Tests used:
[1] = system: FAS, PPARγ, C/EBPα, and FABP4; experiment: Expression of adipogenesis-related proteins in 3T3-L1 cells treated with single compounds; type: cell-based
Description: In order to investigate the effect on expression of the adipocytes differentiation-related proteins by the sea cucumber extract, expression of the related proteins was confirmed through western blot. The differentiation-completed 3T3-L1 cells were washed with PBS, and then lysis was conducted with RIPA buffer, and then the proteins were separated by molecular weight through SDS-PAGE. After that, it was transferred to a PVDF membrane and it was blocked using 5% skim milk for 30 minutes. Then, it was reacted with a primary antibody, and then a secondary antibody was attached to confirm protein expression using an ECL solution.
In order to figure out the mechanism of the fat accumulation inhibitory efficacy of the single compound examined above, the degree of expression of proteins of FAS, PPARγ, C/EBPα, and FABP4, which were adipogenesis-related proteins was confirmed.

[2] = system: 3T3-L1 cells; experiment: Glucose Uptake-Glo Assay, saponin compounds; type: cell-based; details: Mus musculus, read-out: Fold Relative to Control (glucose uptake)
Description: The 3T3-L1 cells were cultured in a high glucose DMEM medium in which 10% Calf serum and penicillin-streptomycin were added, and subcultured per 2-3 days. […] After 2 days, it was replaced with a medium containing insulin, and the medium was replaced again per 2 days to induce differentiation.
For the differentiation-completed 3T3-L1 cells, starvation was conducted for 16 hours, and then a sea cucumber-derived single compound was treated in a serum-free medium at a concentration of 2.5 ug/mL for 6 hours. The cultured supernatant was recovered and for the 3T3-L1 cells, using Glucose Uptake-Glo Assay Kit, the glucose transport activity degree was measured using a luminometer.

[3] = system: 3T3-L1 cells; experiment: 3T3-L1 cell viability of single compounds separated from sea cucumber ovary extract; details: single compounds 2.5-5 μg/ml
[4] = system: 3T3-L1 cells
[5] = system: 3T3-L1 cells; experiment: Oil red O staining, single compounds of sea cucumber ovary extract; type: cell-based
Description: The differentiation-completed 3T3-L1 cells were fixed with 4% formaldehyde for 1 hour, and then fats were stained using a 0.5% Oil red O staining solution to confirm the degree of differentiation. For quantitative analysis of adipose differentiation, the dye stained in the cells was dissolved with 100% isopropyl alcohol and the absorbance was measured at 500 nm.
In order to investigate the effect on adipose differentiation of the 3T3-L1 cells of the single compound in the sea cucumber ovary extract, a total 8 of compounds were treated with a differentiation medium at a concentration of 2.5 and 5 μg/ml for 48 hours.

[6] = differentiated 3T3-L1 cells, compound 2.5 ug/mL, 6 hours, serum-free medium
[7] = 1 μg/ml, compared to the control group

SMILES	expression of adipogenesis-related proteins FAS, PPARγ, C/EBPα, and FABP4 [1]	fold induction at 2.5 µg/mL ([2]; 3T3-L1, 6 h)	fold induction at 2.5 µg/mL [2, 6]	also measured
C=C(C)CCC[C@@]1(C)OC(=O)C23CC=C4C(CCC5C(C)(C)[C@@H](O[C@@H]6OCC(O[C@@H]7OC(CO)C(O)[C@H](O[C@@H]8OC(CO)C(O)[C@H](O)C8O)C7O)[C@H](O)C6O[C@@H]6OC(C)C(O[C@@H]7OC(CO)C(O)[C@H](O[C@@H]8OC(CO)C(O)[C@H](OC)C8O)C7O)[C@H](O)C6O)CC[C@]45C)C2(C)CC(=O)C31 (stereo partly shown) [S6, holotoxin B]	a definite decrease in protein expression	1.24	–	–
C=C(C)CCC[C@](C)(O)[C@@H]1[C@@H]2CC3(C)C4=CCC5C(C)(C)[C@@H](O[C@@H]6OCC(O[C@@H]7OC(CO)C(O)[C@H](O)C7O)[C@H](O)C6O[C@@H]6OC(C)C(O[C@@H]7OC(CO)C(O)[C@H](O[C@@H]8OC(CO)C(O)[C@H](O)C8O)C7O)[C@H](O)C6O)CC[C@]5(C)C4CCC13C(=O)O2 (stereo partly shown) [S2]	–	–	1.43	expression of adipogenesis-related proteins FAS, PPARγ, C/EBPα, and FABP4 ([1]; compared to the control, concentration not given): a significant difference in protein expression was not shown
C=C(C)CCC[C@@]1(C)OC(=O)C23CC=C4C(CCC5C(C)(C)[C@@H](O[C@@H]6OCC(O[C@@H]7OC(CO)C(O)[C@H](O[C@@H]8OC(CO)C(O)[C@H](OC)C8O)C7O)[C@H](O)C6O[C@@H]6OC(C)C(O[C@@H]7OC(CO)C(O)[C@H](O[C@@H]8OC(CO)C(O)[C@H](OC)C8O)C7O)[C@H](O)C6O)CC[C@]45C)C2(C)CC(=O)C31 (stereo partly shown) [S8, holotoxin A]	a definite decrease in protein expression	1.43	–	–
C=C(C)CCC[C@](C)(O)[C@@H]1[C@@H]2CC3(C)C4=CCC5C(C)(C)[C@@H](O[C@@H]6OCC(O[C@@H]7OC(CO)C(O)[C@H](O)C7O)[C@H](O)C6O[C@@H]6OC(C)C(O[C@@H]7OC(CO)C(O)[C@H](O)C7O)[C@H](O)C6O)CC[C@]5(C)C4CCC13C(=O)O2 (stereo partly shown) [S9]	–	–	1.03	–
C=C(C)CCC[C@@]1(C)OC(=O)C23CC=C4C(CCC5C(C)(C)[C@@H](O[C@@H]6OCC(O[C@@H]7OC(CO)C(O)[C@H](O[C@@H]8OC(CO)C(O)[C@H](OC)C8O)C7O)[C@H](O)C6O[C@@H]6OC(CO)C(O[C@@H]7OC(CO)C(O)[C@H](O[C@@H]8OC(CO)C(O)[C@H](O)C8O)C7O)[C@H](O)C6O)CC[C@]45C)C2(C)CC(=O)C31 (stereo partly shown) [S4]	–	–	1.6	expression of adipogenesis-related proteins FAS, PPARγ, C/EBPα, and FABP4 [1, 7]: definitely reduced; expression of adipogenesis-related proteins FAS, PPARγ, C/EBPα, and FABP4 ([1]; from 2.5 μg/ml): expression of the related proteins was definitely reduced; change of 3T3-L1 cell viability [3]: a significant decrease was shown
C=C(C)CCC[C@](C)(O)[C@@H]1[C@@H]2CC3(C)C4=CCC5C(C)(C)[C@@H](O[C@@H]6OCC(O[C@@H]7OC(CO)C(O)[C@H](O)C7O)[C@H](O)C6O[C@@H]6OC(CO)C(O[C@@H]7OC(CO)C(O)[C@H](O[C@@H]8OC(CO)C(O)[C@H](O)C8O)C7O)[C@H](O)C6O)CC[C@]5(C)C4CCC13C(=O)O2 (stereo partly shown) [S1]	–	–	1.25	–
C=C(C)CCC[C@@]1(C)OC(=O)C23CC=C4C(CCC5C(C)(C)[C@@H](O[C@@H]6OCC(O[C@@H]7OC(CO)C(O)[C@H](O[C@@H]8OC(CO)C(O)[C@H](O)C8O)C7O)[C@H](O)C6O[C@@H]6OC(CO)C(O[C@@H]7OCC(O)[C@H](O[C@@H]8OC(CO)C(O)[C@H](OC)C8O)C7O)[C@H](O)C6O)CC[C@]45C)C2(C)CC(=O)C31 (stereo partly shown) [S5, holotoxin D1]	expression of the related proteins was definitely reduced	1.38	–	change of 3T3-L1 cell viability [4]: a significant decrease was shown
C=C(C)CCC[C@](C)(O)[C@@H]1[C@@H]2CC3(C)C4=CCC5C(C)(C)[C@@H](O[C@@H]6OCC(O[C@@H]7OC(CO)C(O)[C@H](O)C7O)[C@H](O)C6O[C@@H]6OC(C)C(O[C@@H]7OC(CO)C(O)[C@H](O[C@@H]8OC(CO)C(O)[C@H](OC)C8O)C7O)[C@H](O)C6O)CC[C@]5(C)C4CCC13C(=O)O2 (stereo partly shown) [S3]	–	–	1.1	inhibition at 1 µg/mL ([5]; Mus musculus, 3T3-L1, 1 μg/ml (lowest of the series from 1 μg/ml to 5 μg/ml), read-out: inhibition of fat accumulation): ~16%; inhibition at 5 µg/mL ([5]; Mus musculus, 3T3-L1, 5 μg/ml (highest of the series from 1 μg/ml to 5 μg/ml), read-out: inhibition of fat accumulation): ~80%; inhibition of fat accumulation ([5]; middle concentration of the series from 1 μg/ml to 5 μg/ml (2.5 μg/ml by the method)): ~40%; expression of adipogenesis-related proteins FAS, PPARγ, C/EBPα, and FABP4 [1, 7]: definitely reduced; expression of adipogenesis-related proteins FAS, PPARγ, C/EBPα, and FABP4 ([1]; from 2.5 μg/ml): expression of the related proteins was definitely reduced; change of 3T3-L1 cell viability [3]: a significant decrease was shown
